“Also recorded” adds a separate entry of the source. Read-outs that look alike come from different tables or passages of the source.
Legend:
[1] = tested on: Sprague-Dawley rats; experiment: animal or person; type: in vivo; details: LORR, up and down method, tail vein, rats, class symbols
Description: (§1) Evaluating indicator: The end point of anesthesia: LORR was used as the end point of anesthesia; General anesthesia effect: the disappearance of forepaw righting reflex in rats lasting for 30 seconds is taken as the index of general anesthesia effect; Anesthesia recovery index: the recovery of rat forepaw righting reflex was used as the index of anesthesia recovery.

[2] = tested on: Sprague-Dawley rats; experiment: Pharmacological effect and adverse reactions under the equivalent dose (2ED50), Group D compounds; type: in vivo
Description: (§2) Evaluation index: onset time: from the completion of drug injection to the disappearance of forepaw righting reflex in rats; Duration of anesthesia: the time from the disappearance of rat forepaw righting reflex to the recovery of rat forepaw righting reflex; Recovery time of anesthesia: the time from the […] to complete recovery;

[3] = tested on: Sprague-Dawley rats; experiment: animal or person; type: in vivo; details: LORR, up and down method, tail vein, rats, class symbols; remark: listed apart in the source
Description: as §1, with “the disappearance of forepaw righting reflex (lorr)” for “LORR”

[4] = tested on: H295R cell line; experiment: Adrenocortical function in vitro test: secretion of cortisol and corticosterone, Group B compounds; type: cell-based; details: H295R cells; for EC50: 0.1-10000 nM, HPLC-MS/MS
[5] = tested on: Sprague-Dawley rats; experiment: Continuous infusion at 2 times the MIR for 1 hour, Group B compounds; type: in vivo; details: for Recovery time after stopping infusion: after 1 hour continuous infusion at 2 times the MIR; for Recovery time after stopping infusion / Onset time: rats; for Types and incidence of adverse reactions: Tremor / Types and incidence of adverse reactions: Tongue stretching: continuous infusion 2 x MIR 1 hour, rats affected/rats; for Onset time: continuous tail vein infusion at 2 times the MIR, emulsion
Experimental: Time to recovery of righting reflex from stopping infusion, and time to fully awake from stopping infusion were recorded.

[6] = tested on: Sprague-Dawley rats; experiment: animal or person; details: for ED50: LORR in rats, tail vein, brackets = 95% confidence limit; for Approximate therapeutic index / Minimal lethal dose: rats
Experimental: (§3) Adult male Sprague-Dawley rats (250-300 g) were selected for the experiment. […] The anesthesia effects of the compounds were assessed in rats using a LORR assay and a period >30 s was considered as an indicator of general anesthesia.

[7] = tested on: Sprague-Dawley rats; experiment: Pharmacological effect and adverse reactions under the equivalent dose (2ED50), Group C compounds; type: in vivo
Description: as §2

[8] = tested on: Sprague-Dawley rats; experiment: Pharmacological characteristics at equivalent doses (2ED50), Group A compounds; type: in vivo; details: 2ED50, tail vein; for Types and incidence of adverse reactions: (animals affected/animals)
[9] = tested on: Sprague-Dawley rats; experiment: animal or person; details: for ED50: Rattus norvegicus; for Approximate therapeutic index / Minimal lethal dose: rats
Experimental: as §3

[10] = tested on: H295R cell line; experiment: Adrenocortical function in vitro test: secretion of cortisol and corticosterone, Group A compounds; type: cell-based; details: H295 cells; for EC50: Homo sapiens, 0.1-10000 nM, HPLC-MS/MS
[11] = Rattus norvegicus, read-out: ED50
[12] = 2ED50, tail vein, rats, n=8, unit min
[13] = equivalent dose (2 × ED50), number of rats of n = 8
[14] = read-out: EC50 (Corticosterone)
[15] = equivalent dose (2ED50), number of rats of n = 8

Structure (SMILES)	Onset time [8]	Righting reflex duration [8]	ED50 [9]	Approximate therapeutic index [9]	Minimal lethal dose [9]	Corticosterone as an indicator to determine the presence of inhibition [10]	Cortisol as an indicator to determine the presence of inhibition [10]	EC50 [10, 14]	EC50 ([10]; read-out: EC50 (Cortisol))	Types and incidence of adverse reactions [8]	other results
CC(=O)OCC(=O)c1cncn1[C@H](C)c1ccccc1 [Compound C53]											ED50 [1, 11]: 10 to 20 mg/kg
CC(=O)COCC(=O)c1c(F)ncn1[C@H](C)c1ccccc1 [Compound C84]											ED50 [1, 11]: 10 to 20 mg/kg
CCOC(OC)(OC)C(=O)c1ccnn1[C@H](C)c1ccccc1 [Compound D3]											Righting reflex duration ([2]; 2ED50, tail vein, rats, n=8): 1.25 ± 0.27 min; Sedation duration ([2]; 2ED50, tail vein, rats, n=8): 6.26 ± 1.50 min; Onset time [2, 12]: <1 min; Adverse reaction: Convulsions [2, 13]: 0; Adverse reaction: Cough, broken-winded [2, 13]: 0; Adverse reaction: Euphoria [2, 13]: 0; Adverse reaction: Four limbs rigidity [2, 13]: 1; Adverse reaction: Red urine [2, 13]: 8; Adverse reaction: Slower breathing, Tetany convulsion [2, 13]: 0; Adverse reaction: Systemic stiffness, Convulsions, Opisthotonus [2, 13]: 0; Adverse reaction: Tongue stretching [2, 13]: 0; Adverse reaction: Tremor [2, 13]: 1; ED50 [3, 11]: 2 to 6 mg/kg
C[C@H](c1ccccc1)n1nncc1C(=O)OC(C)(C)C [Compound B12]											Corticosterone as an indicator to determine the presence of inhibition [4]: 0; Cortisol as an indicator to determine the presence of inhibition [4]: 0; EC50 [4, 14]: > 1000 nM; EC50 ([4]; read-out: EC50 (Cortisol)): > 1000 nM; Recovery time after stopping infusion [5]: 13 to 15 min; Types and incidence of adverse reactions: Tremor [5]: Tremor(3/6); Onset time [5]: 5 to 6 min; ED50 [6]: A (A indicates that the measured ED50 is in the range of 0.04-0.50 mg/kg (including 0.04 and 0.50 mg/kg)); Approximate therapeutic index [6]: >16; Minimal lethal dose [6]: >5 mg/kg
CCOC(=O)c1nnn([C@H](C)c2ccccc2)c1Br [Compound B100]											Corticosterone as an indicator to determine the presence of inhibition [4]: 0; Cortisol as an indicator to determine the presence of inhibition [4]: 0; EC50 [4, 14]: > 1000 nM; EC50 ([4]; read-out: EC50 (Cortisol)): > 1000 nM; Recovery time after stopping infusion [5]: 15 to 17 min; Types and incidence of adverse reactions: Tongue stretching [5]: stretching(3/6); Types and incidence of adverse reactions: Tremor [5]: Tremor(2/6), Tongue; Onset time [5]: 5 to 6 min; ED50 [6]: D (D indicates that the measured ED50 is in the range of 2.00-10.00 mg/kg (excluding 2.00 mg/kg, including 10.00 mg/kg)); Approximate therapeutic index [6]: >2; Minimal lethal dose [6]: >18 mg/kg
C[C@H](c1ccccc1)n1cncc1C(=O)COCC1CCC1 [Compound C29]											ED50 [1, 11]: 2 to 10 mg/kg
C=C=CC1(OC(=O)c2cnnn2[C@H](C)c2ccccc2)COC1 [Compound B3]											Corticosterone as an indicator to determine the presence of inhibition [4]: 0; Cortisol as an indicator to determine the presence of inhibition [4]: 0; EC50 ([4]; Homo sapiens, NCI-H295R, read-out: EC50 (Corticosterone)): > 1000 nM; EC50 ([4]; Homo sapiens, NCI-H295R, read-out: EC50 (Cortisol)): > 1000 nM; Recovery time after stopping infusion [5]: 15 to 16 min; Types and incidence of adverse reactions: Tongue stretching [5]: stretching(3/6); Types and incidence of adverse reactions: Tremor [5]: Tremor(4/6), Tongue; Onset time [5]: 3 to 4 min; ED50 ([6]; Rattus norvegicus): 0.04 to 0.5 mg/kg; Approximate therapeutic index [6]: >32; Minimal lethal dose [6]: >6 mg/kg
CC#CCOCC(OC)(OC)C(=O)c1cncn1[C@H](C)c1ccccc1 [Compound D73]											ED50 [3]: +++++ (+++++ indicates that the measured ED50 is greater than 6.00 mg/kg (excluding 6.00 mg/kg))
CCC(CC)OC(=O)C(=O)c1cncn1[C@H](C)c1ccccc1 [Compound D83]											ED50 [3, 11]: > 6 mg/kg
CC#CC(=O)c1cncn1[C@H](C)c1ccccc1 [Compound C54]											ED50 [1, 11]: 20 to 30 mg/kg
CC#CCOC(=O)C(=O)c1cncn1[C@H](C)c1ccccc1 [Compound D84]											ED50 [3, 11]: 2 to 6 mg/kg
CC#CCOCC(=O)c1ccnn1[C@H](C)c1ccccc1 [Compound C1]											Righting reflex duration ([7]; 2ED50, tail vein, rats, n=8): 0.90 ± 0.30 min; Sedation duration ([7]; 2ED50, tail vein, rats, n=8): 9.06 ± 1.21 min; Onset time [7, 12]: <1 min; Adverse reaction: Convulsions [7, 15]: 0; Adverse reaction: Cough, broken-winded [7, 15]: 0; Adverse reaction: Euphoria [7, 15]: 2; Adverse reaction: Red urine [7, 15]: 8; Adverse reaction: Slower breathing, Tetany convulsion [7, 15]: 0; Adverse reaction: Systemic stiffness, Convulsions, Opisthotonus [7, 15]: 0; Adverse reaction: Tongue stretching [7, 15]: 1; Adverse reaction: Tremor [7, 15]: 0; Adverse reaction: the four limbs rigidity [7, 15]: 0; ED50 [1]: ++++ (++++ indicates that the measured ED50 is in the range of 2.00-10.00 mg/kg (excluding 2.00 mg/kg, including 6.00 mg/kg))
C=CC1(OC(=O)c2c(F)cnn2[C@H](C)c2ccccc2)COC1 [Compound A87]	0.30 ± 0.12 min	2.21 ± 0.24 min	0.5 to 1 mg/kg	>18	>13 mg/kg	0	0	> 1000 nM	> 1000 nM		
CO[C@H]1C[C@@H](OC(=O)c2ccnn2[C@H](C)c2ccccc2)C1 [Compound A25]	0.50 ± 0.12 min	2.6 ± 0.83 min	0.04 to 0.5 mg/kg	>21	>5 mg/kg	0	0	> 1000 nM	> 1000 nM	Red urine(8/8), Hindlimb; also recorded: rigidity (2/8), Tremor(1/8)	
C=C=CC1(OC(=O)c2c(F)c(F)nn2[C@H](C)c2ccccc2)COC1 [Compound A92]	0.43 ± 0.22 min	2.03 ± 0.33 min	0.04 to 0.5 mg/kg	>14	>1 mg/kg	0	0	> 1000 nM	> 1000 nM	Red and urine(8/8), Tremor(2/8), and Euphoria(1/8)	
C[C@H](c1ccccc1)n1nccc1C(=O)OC1CSC1 [Compound A6]	0.38 ± 0.12 min	3.81 ± 2.17 min	2 to 6 mg/kg	>5	>13 mg/kg	0	0	> 1000 nM	> 1000 nM	Red urine(8/8), Facial; also recorded: muscle; also recorded: twitching(2/8), Hindlimb; also recorded: rigidity (1/8)	
COC(=O)C1=C(OC(=O)c2cc(F)nn2[C@H](C)c2ccccc2)CCCC1 [Compound A54]	0.69 ± 0.11 min	2.13 ± 1.80 min	1 to 2 mg/kg	>9	>12 mg/kg	0	0	> 100 nM	> 100 nM	rigidity; also recorded: (3/8), GeneralTremor(1/8); also recorded: Red urine(8/8), Hindlimb	
C=CC1(OC(=O)c2ccnn2[C@H](C)c2ccccc2)COC1 [Compound A34]	0.60 ± 0.32 min	1.6 ± 0.43 min	0.5 to 1 mg/kg	>6	>4 mg/kg	0	0	> 1000 nM	> 1000 nM	Red urine(8/8), Hindlimb; also recorded: rigidity(2/8), Tremor(1/8)	
COC(=O)C1=C(OC(=O)c2c(C(F)(F)F)cnn2[C@H](C)c2ccccc2)CCCC1 [Compound A101]	0.39 ± 0.21 min	2.29 ± 0.65 min	1 to 2 mg/kg	>8	>13 mg/kg	0	0	> 100 nM	> 100 nM	Red and urine(8/8), Euphoria(3/8), and Nod(2/8)	
